We go through one compound from patent US20120232062A1, “AZAINDAZOLES TO TREAT FLAVIVIRIDAE VIRUS INFECTION” (EIGER BIOPHARMACEUTICALS, INC., priority 2009, published 2012).

Series [1] in a line: Liver microsome stability, rat. In kind it is in vitro ADME, Sprague Dawley rat. On the technique in general: Liver microsomes are a subcellular fraction often used to study metabolism.
The nature of series [2]: Liver microsome stability, human. Type of series: in vitro ADME.
The nature of series [3]: Caco-2 permeability testing. In kind it is in vitro ADME, human. To be noted: human, 90 min. The essentials:
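Caco-2 monolayers grown 21-27 days in MEM + 10% FBS + 1% NEAA; bidirectional transport (A-B, B-A) in HBSS with 25 mM HEPES, pH 7.4, 10 μM compound donor with 5 μM Lucifer Yellow as monolayer marker. Papp measured each direction, quantified against standard curve with internal standard; efflux ratio Papp(B-A)/Papp(A-B).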

The nature of series [4]: Liver microsome stability, mouse. Type of series: in vitro ADME, CD-1 mouse.

In the case of `Cn1nc(CCCN2CCCCC2CO)c2ccc(N3CCCCCCC3)nc21` (centres unmarked) [compound 1456], the entries for the “rat liver microsome (RLM), % parent remaining” value in series [1] (after 15 min), in series [1] (after 30 min) and in series [1] (after 60 min) were 3.9 % parent remaining, 0.4 % parent remaining and 0.2 % parent remaining, respectively. In addition, the results for the “human liver microsome (HLM, % parent remaining)” value in series [2] (after 15 min), in series [2] (after 30 min) and in series [2] (after 60 min) were 28 % parent remaining, 6 % parent remaining and 0.7 % parent remaining, respectively. Also, in series [3] (Caco-2, pH 7.4, Caco-2, A-B, read-out: Permeability (second figure of Efflux/permeability), Papp (A-B)), the Papp A→B at 90 min, 10 µM turned out to be 15 ×10⁻⁶ cm/s. For the same compound, the Papp B→A at 90 min, 10 µM in series [3] (Caco-2, pH 7.4, Caco-2, B-A, read-out: Efflux (first figure of Efflux/permeability), Papp (B-A)) was determined as 15 ×10⁻⁶ cm/s. In addition, the “mouse liver microsome (MLM), % parent remaining” value in series [4] (after 15 min) is 1.7 % parent remaining; in series [4] (after 30 min), 0.9 % parent remaining; in series [4] (after 60 min), 0.3 % parent remaining.
